Data: US8163771B2, “11 β-HSD1 modulators” (Exelixis, Inc., priority 2008, dated 2012)

target: T1, recombinant human 11 β-HSD1 (Homo sapiens, UniProt P28845); assay: 11 β-HSD1 SPA Assay (Scintillation Proximity Assay); assay type: biochemical
T1 construct: made in house; host or cells: E. coli
How it was run: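 Scintillation proximity read-out of cortisol formed from 40 nM [3H]cortisone by purified recombinant human enzyme (30-100 nM, E. coli) with 1 mM NADPH, pH7.4, 2 hours at room temperature; beads with cortisol antibody and glycyrrhetinic acid stop the reaction, read next day. IC50 derived from inhibition normalised to background and maximal wells.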

T1 sequence (P28845 whole entry): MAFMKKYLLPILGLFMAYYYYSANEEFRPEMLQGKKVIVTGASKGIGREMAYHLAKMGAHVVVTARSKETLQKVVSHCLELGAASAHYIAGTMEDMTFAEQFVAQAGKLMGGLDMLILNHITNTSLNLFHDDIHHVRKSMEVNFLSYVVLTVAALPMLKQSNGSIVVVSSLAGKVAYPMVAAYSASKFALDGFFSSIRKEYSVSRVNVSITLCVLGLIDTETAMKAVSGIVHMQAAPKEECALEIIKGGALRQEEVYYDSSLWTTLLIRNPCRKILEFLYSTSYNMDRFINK

SMILES	IC50 [µM]
CC(C)(Oc1cc(F)c(F)cc1Cl)C(=O)N[C@H]1C[C@H]2CC[C@@H](C1)N2c1ccc(S(N)(=O)=O)cn1 [Example 262, N-{8-[5-(aminosulfonyl)pyridin-2-yl]-8-azabicyclo[3.2.1]oct-3-endo-yl}-2-[(2-chloro-4,5-difluorophenyl)oxy]-2-methylpropanamide]	< 0.2
CC(C)(Oc1ccc(Cl)cc1C(F)(F)F)C(=O)N[C@H]1C[C@H]2CC[C@@H](C1)N2c1ccc(S(C)(=O)=O)cn1 [Example 263, 2-{[4-chloro-2-(trifluoromethyl)phenyl]oxy}-2-methyl-N-{8-[5-(methylsulfonyl)pyridin-2-yl]-8-azabicyclo[3.2.1]oct-3-endo-yl}propanamide]	< 0.2
CC(C)(Oc1ccc(F)cc1)C(=O)N[C@H]1C[C@H]2CC[C@@H](C1)N2c1ccc(S(N)(=O)=O)cn1 [Example 264, N-{8-[5-(aminosulfonyl)pyridin-2-yl]-8-azabicyclo[3.2.1]oct-3-endo-yl}-2-[(4-fluorophenyl)oxy]-2-methylpropanamide]	< 0.2
CC(C)(Oc1ccc(F)cc1Cl)C(=O)N[C@H]1C[C@H]2CC[C@@H](C1)N2c1ccc(C(=O)NC2CC2)cn1 [Example 265, 6-[3-endo-({2-[(2-chloro-4-fluorophenyl)oxy]-2-methylpropanoyl}amino)-8-azabicyclo[3.2.1]oct-8-yl]-N-cyclopropylpyridine-3-carboxamide]	< 0.2
CC(C)(Oc1ccc(-c2ccccc2)cc1Cl)C(=O)N[C@H]1C[C@H]2CC[C@@H](C1)N2c1ccc(C(N)=O)cn1 [Example 266, 6-[3-endo-({2-[(3-chlorobiphenyl-4-yl)oxy]-2-methylpropanoyl}amino)-8-azabicyclo[3.2.1]oct-8-yl]pyridine-3-carboxamide]	< 0.2
CC(C)(Oc1cc(F)ccc1C(F)(F)F)C(=O)N[C@H]1C[C@H]2CC[C@@H](C1)N2c1ccc(S(C)(=O)=O)cn1 [Example 267, 2-{[5-fluoro-2-(trifluoromethyl)phenyl]oxy}-2-methyl-N-{8-[5-(methylsulfonyl)pyridin-2-yl]-8-azabicyclo[3.2.1]oct-3-endo-yl}propanamide]	< 0.2
CC(C)(Oc1ccc(Cl)cc1Cl)C(=O)NC1CC2CCC(C1)N2c1ccc(C(=O)NC2CC2(F)F)cn1 (stereo not drawn) [Example 268, 6-[3-endo-({2-[(2,4-dichlorophenyl)oxy]-2-methylpropanoyl}amino)-8-azabicyclo[3.2.1]oct-8-yl]-N-(2,2-difluorocyclopropyl)pyridine-3-carboxamide]	< 0.2
CC(C)(Oc1ccc(F)cc1S(C)(=O)=O)C(=O)N[C@H]1C[C@H]2CC[C@@H](C1)N2c1ccc(C(N)=O)cn1 [Example 269, 6-{3-endo-[(2-{[4-fluoro-2-(methylsulfonyl)phenyl]oxy}-2-methylpropanoyl)amino]-8-azabicyclo[3.2.1]oct-8-yl}pyridine-3-carboxamide]	< 0.2
CC(C)(Oc1cc(Cl)c(F)cc1Cl)C(=O)N[C@H]1C[C@H]2CC[C@@H](C1)N2c1ccc(NS(C)(=O)=O)cn1 [Example 270, 2-[(2,5-dichloro-4-fluorophenyl)oxy]-2-methyl-N-(8-{5-[(methylsulfonyl)amino]pyridin-2-yl}-8-azabicyclo[3.2.1]oct-3-endo-yl)propanamide]	< 0.2
CC(C)(Oc1ccc2ccccc2c1Cl)C(=O)N[C@H]1C[C@H]2CC[C@@H](C1)N2c1ccc(C(N)=O)cn1 [Example 271, 6-[3-endo-({2-[(1-chloronaphthalen-2-yl)oxy]-2-methylpropanoyl}amino)-8-azabicyclo[3.2.1]oct-8-yl]pyridine-3-carboxamide]	< 0.2
CC(C)(Oc1ccc(F)c(C(F)(F)F)c1)C(=O)N[C@H]1C[C@H]2CC[C@@H](C1)N2c1ccc(S(C)(=O)=O)cn1 [Example 272, 2-{[4-fluoro-3-(trifluoromethyl)phenyl]oxy}-2-methyl-N-{8-[5-(methylsulfonyl)pyridin-2-yl]-8-azabicyclo[3.2.1]oct-3-endo-yl}propanamide]	< 2
